Assay results: paper PMC11220700, “Activation and Purification of ß‐Glucocerebrosidase by Exploiting its Transporter LIMP‐2 – Implications for Novel Treatment Strategies in Gaucher's and Parkinson's Disease” (Advanced Science, 2024)
Entries after “also recorded” stand apart in the source; their conditions may differ. No end group written: not given here.

Columns and labels:
HEK 293T cells = conditions: 5 µM L2H5‐wt, LC‐MS/MS
Method: HEK 293T cells were seeded on 10 cm dishes. When confluence was reached, the cells were treated with 5 µM of L2H5‐wt for 2 and 24 h before harvesting. LE fractions were generated as described before (see “Expression and enrichment of lysosomes from HEK 293T cells”). Proteome analysis was performed as described in the following:
The LE fractions were processed using the single‐pot, solid‐phase‐enhanced sample‐preparation (SP3) approach.^[ [74] ^] The proteins were then digested using trypsin overnight at 37 °C. The resultant peptide solution was purified by solid phase extraction in C18 StageTips.^[ [75] ^]
Samples were analyzed using an Orbitrap Exploris 480 mass spectrometer (Thermo Fisher Scientific, Waltham, MA, United States) coupled to an EASY‐nLC 1200 UHPLC system (Thermo Fisher Scientific, Waltham, MA, United States). Peptides were separated in an in‐house packed 60‐cm analytical column (inner diameter: 75 µm; ReproSil‐Pur 120 C18‐AQ 1.9‐µm silica particles, Dr. Maisch, Ammerbuch, Germany) by online reversed‐phase chromatography through a 120‐min gradient of 2.4–32% v/v acetonitrile with 0.1% v/v formic acid at a nanoflow rate of 250 nl min^−1. The eluted peptides were sprayed directly by electrospray ionization into the mass spectrometer. […]

[1] = test system: primary human fibroblasts (CTRL‐2, PD‐1, PD‐2); experiment: Toxicity assessment via LDH release; format: cell-based
Method: Primary human fibroblasts were seeded on a 96‐well plate at 3 × 10^4 cells per well. The next day, the medium was replaced with a 50 µL fresh fibroblast medium containing various concentrations of L2H5‐wt peptide (0–20 µM). The cells were incubated for 72 h before the conditioned medium was harvested. LDH release to the cell medium as a marker for cell death was measured using a CyQuant LDH Cytotoxicity Assay Kit (Invitrogen, Waltham, MA, United States #C20300) following the manufacturer's instructions. For each condition, three wells were seeded and measured as triplicates. A480 and […] absorption values were measured using a ClarioStar (BMG LABTECH, Ortenberg, Germany) multiplate reader. LDH enzyme activity was determined by calculating the difference between A480 and A690 values for each well.

[2] = Precipitation / solubility of peptide in assay buffers; format: physicochemical; conditions: lysosomal pH 5.0, higher concentrations
Method: Activity of GCase‐containing samples (recombinant protein, cell lysate, LE fractions, conditioned culture medium) was measured using the synthetic substrate 4‐methylumbelliferyl‐β‐D‐glucopyranoside (4MU, Merck Millipore, Billerica, MA, United States, #M3633). […] of the sample (cell supernatant, SEC fractions) or 2.5 µg of total protein from whole‐cell lysates were added to the well of a black 96‐well Maxisorp plate (ThermoFisher Scientific Inc., Waltham, MA, United States, #437 111). The reaction volume was then increased to 100 µL with GCase activity buffer (see paragraph “Cell Lysis”) and a final concentration of 1 µM of 4MU substrate was added. […] GCase activity was quantified via fluorescence of released 4‐methylumbelliferone (endpoint measurement) using an Infinite 200 Pro (TECAN, Männedorf, Switzerland), SpectraMax Gemini (Molecular Devices, San José, CA, United States) or ClarioStar (BMG LABTECH, Ortenberg, Germany) multiplate reader (λ ex: 365 nm; λ em: 445 nm). […]
For interaction of GCase with L2H5‐wt peptide, recombinant GCase was produced in‐house (see paragraph “Expression and Purification of His‐tagged GCase‐wt Protein”) and labeled as described for Cerezyme. […] For each replicate, a twofold dilution series of 16 samples was measured, starting at 125 µM ligand (L2H5‐wt) concentration. […]

[3] = test system: lysosomal GCase in primary human fibroblasts (CTRL‐2, PD‐1, PD‐2); experiment: Live cell measurement of lysosomal GCase activity (PFB‐Gluc); format: cell-based; conditions: 10 µM peptide, 48 h, area between curves (total minus bafilomycin), n = 3
Method: GCase activity inside the lysosomes of living cells was measured via the fluorescent probe PFB‐Gluc (ThermoFisher Scientific Inc., Waltham, MA, United States, #P11947). The experimental procedure was adapted from Cuddy and Mazzulli.^[ [72] ^] Primary human fibroblasts were seeded at 20 000 cells per well on a black 96‐well cell culture dish with transparent bottom (Corning, Corning, NY, United States, #3603). For each replicate, two wells were seeded. […] The next day, the medium was changed again to 50 µL of fresh media containing treatment. On day 3, one of the two‐seeded wells for each replicate (control well) was treated with 200 nM bafilomycin 1A (Baf, Santa Cruz Biotechnology, Dallas, TX, United States, #sc‐201550A) for 1 h to inhibit lysosomal enzyme activity. […] Immediately after, the first fluorescence measurement was taken (PFB‐Gluc: λ ex: 485 nm; λ em: 538 nm; cutoff: 495 nm). The cells were kept at 37 °C and measured every 30 min for a total of 180 min. […]
For data evaluation, PFB‐Gluc measurements over time were baseline‐corrected and then normalized per well to the respective CellTag 700 signal (cell volume). Replicates were arranged in an XY diagram with their respective Baf control and the AUC for both curves was calculated. Lysosomal activity was then calculated by subtracting the baf control (non‐lysosomal activity) AUC from the non‐inhibited AUC (total activity).

[4] = test system: recombinant GCase (Cerezyme/imiglucerase); experiment: 4MU GCase activity assay with recombinant enzyme Cerezyme/imiglucerase; format: biochemical; conditions: varying peptide concentrations, 4MU substrate, detergent‐free, n = 3
Method: Activity of GCase‐containing samples (recombinant protein, cell lysate, LE fractions, conditioned culture medium) was measured using the synthetic substrate 4‐methylumbelliferyl‐β‐D‐glucopyranoside (4MU, Merck Millipore, Billerica, MA, United States, #M3633). […] of the sample (cell supernatant, SEC fractions) or 2.5 µg of total protein from whole‐cell lysates were added to the well of a black 96‐well Maxisorp plate (ThermoFisher Scientific Inc., Waltham, MA, United States, #437 111). The reaction volume was then increased to 100 µL with GCase activity buffer (see paragraph “Cell Lysis”) and a final concentration of 1 µM of 4MU substrate was added. After incubation at 37 °C for 30 min, the reaction was stopped by adding 100 µL of stop solution (0.1 M glycine, pH 10.4). GCase activity was quantified via fluorescence of released 4‐methylumbelliferone (endpoint measurement) using an Infinite 200 Pro (TECAN, Männedorf, Switzerland), SpectraMax Gemini (Molecular Devices, San José, CA, United States) or ClarioStar (BMG LABTECH, Ortenberg, Germany) multiplate reader (λ ex: 365 nm; λ em: 445 nm).
For all activity assays in the presence of recombinant LIMP‐2 or synthetic peptides, sodium taurocholate, and Triton X‐100 were omitted from the reaction to not hinder protein–protein interaction. […]

SEC of FRed-L2H5-wt = format: physicochemical; conditions: Superdex 200 Increase 10/300 GL, PBS, 0.5 mL min^−1, UV280 and UV580
Method: Two hundred microliters of protein solution were injected using a 500 μL loop. Fractions of 1000 μL were collected. Based on the UV280 and UV580 elution profiles, fraction 15 containing monomeric […] concentrated using a 10K Amicon ultra 0.5 filter unit.

[5] = test system: Parkinson's disease progression; conditions: ClinicalTrials.gov ID NCT02906020; cited from earlier work
Text: In the context of diseases, where lysosomal GCase activity is reduced, activation of either impaired mutated GCase or residual wt GCase could provide a therapeutic strategy for restoring lysosomal function. Both in GBA1‐associated and in GBA1‐wt PD models and patients, ongoing preclinical and clinical studies are already exploring this possibility, predominantly at the stage of screening for GCase activators for the treatment of Gaucher and Parkinson's disease.^[ [57], [58] ^] Despite the expected increase of the prevalence of PD and worldwide disease burden due to increasing life expectancy a ...

## KFERQGSGSQVHFLREIIEAMLKAYQSGSGYGRKKRRQRRR-NH2 [L2H5‐wt]
HEK 293T cells
  L2H5‐wt‐specific tryptic peptides detected in LE fractions, 2 h: peptides 2 and 3; also recorded: could be detected by mass spectrometry 2 h
[1]; 0–20 µM, 72 h, CTRL‐2, PD‐1, PD‐2 fibroblasts, n = 3
  concentration tolerated (no increase in cell death, LDH release): up to 10 µM
[1]; 20 µM, 72 h, CTRL‐2, PD‐1, PD‐2 fibroblasts, n = 3
  LDH release at 20 µM: strong increase in LDH release; also recorded: LDH activity in the medium was significantly increased
[1]; primary fibroblasts
  concentration at which cell toxicity starts: ≥ 20 µM
[2]
  solubility in MST measurement: insufficient solubility of the peptide at higher concentrations

## KFERQGSGSQVHFLREDDEAMDKAYQSGSGYGRKKRRQRRR [L2H5‐3xD]
[3]
  lysosomal GCase activity: did not affect lysosomal GCase activity; also recorded: did not elevate lysosomal GCase activity
[4]
  effect on GCase activity, concentration dependence: no effect on GCase activity

## QVHFLREIIEAMLKAYQ [FRed‐L2H5‐wt, L2H5‐wt peptide fused to FusionRed, expressed in E. coli]
SEC of FRed-L2H5-wt
  aggregation in SEC profile: The earlier peak likely consists of aggregated protein

## CC(C)(NC(=O)O[C@@H]1CN2CCC1CC2)c1csc(-c2ccc(F)cc2)n1 [venglustat]
[5]
  clinical trial outcome: changing GluCer levels alone may not be sufficient to positively affect disease progression
